Experiment [1] addresses T1, cardiac myofibrils (myosin ATPase).
T1 construct: frozen myofibril pellets obtained from cardiac tissue; from tissue
Briefly: Cardiac Myofibril ATPase Assay (counter screen). The class given is biochemical. The settings on record: myofibrils 1.0 mg/mL, KCl omitted. An outline of the steps: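 Frozen cardiac myofibrils at 1.0 mg/mL final, KCl omitted, in a PK-LDH coupled ATPase assay; ADP production tracked as NADH loss by absorbance at 340 nm. Inhibition taken as reduced rate relative to vehicle controls, with IC50 derived.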
(In general: Counterscreens check selectivity or assay interference.)

In experiment [2] the target is skeletal myofibrils (myosin ATPase). Briefly: Skeletal Myofibril ATPase Assay. The class given is biochemical. The method in brief: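 Skeletal myofibril ATPase measured by PK-LDH coupled NADH depletion, absorbance 340 nm read every 1.5-2 min over 45 min. Max−min rate normalized to 1% DMSO vehicle as 100%; IC50 from four-parameter logistic fit with bottom ≥0. Cardiac myofibrils used as counter-screen.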

T1 sequence (P12883 whole entry): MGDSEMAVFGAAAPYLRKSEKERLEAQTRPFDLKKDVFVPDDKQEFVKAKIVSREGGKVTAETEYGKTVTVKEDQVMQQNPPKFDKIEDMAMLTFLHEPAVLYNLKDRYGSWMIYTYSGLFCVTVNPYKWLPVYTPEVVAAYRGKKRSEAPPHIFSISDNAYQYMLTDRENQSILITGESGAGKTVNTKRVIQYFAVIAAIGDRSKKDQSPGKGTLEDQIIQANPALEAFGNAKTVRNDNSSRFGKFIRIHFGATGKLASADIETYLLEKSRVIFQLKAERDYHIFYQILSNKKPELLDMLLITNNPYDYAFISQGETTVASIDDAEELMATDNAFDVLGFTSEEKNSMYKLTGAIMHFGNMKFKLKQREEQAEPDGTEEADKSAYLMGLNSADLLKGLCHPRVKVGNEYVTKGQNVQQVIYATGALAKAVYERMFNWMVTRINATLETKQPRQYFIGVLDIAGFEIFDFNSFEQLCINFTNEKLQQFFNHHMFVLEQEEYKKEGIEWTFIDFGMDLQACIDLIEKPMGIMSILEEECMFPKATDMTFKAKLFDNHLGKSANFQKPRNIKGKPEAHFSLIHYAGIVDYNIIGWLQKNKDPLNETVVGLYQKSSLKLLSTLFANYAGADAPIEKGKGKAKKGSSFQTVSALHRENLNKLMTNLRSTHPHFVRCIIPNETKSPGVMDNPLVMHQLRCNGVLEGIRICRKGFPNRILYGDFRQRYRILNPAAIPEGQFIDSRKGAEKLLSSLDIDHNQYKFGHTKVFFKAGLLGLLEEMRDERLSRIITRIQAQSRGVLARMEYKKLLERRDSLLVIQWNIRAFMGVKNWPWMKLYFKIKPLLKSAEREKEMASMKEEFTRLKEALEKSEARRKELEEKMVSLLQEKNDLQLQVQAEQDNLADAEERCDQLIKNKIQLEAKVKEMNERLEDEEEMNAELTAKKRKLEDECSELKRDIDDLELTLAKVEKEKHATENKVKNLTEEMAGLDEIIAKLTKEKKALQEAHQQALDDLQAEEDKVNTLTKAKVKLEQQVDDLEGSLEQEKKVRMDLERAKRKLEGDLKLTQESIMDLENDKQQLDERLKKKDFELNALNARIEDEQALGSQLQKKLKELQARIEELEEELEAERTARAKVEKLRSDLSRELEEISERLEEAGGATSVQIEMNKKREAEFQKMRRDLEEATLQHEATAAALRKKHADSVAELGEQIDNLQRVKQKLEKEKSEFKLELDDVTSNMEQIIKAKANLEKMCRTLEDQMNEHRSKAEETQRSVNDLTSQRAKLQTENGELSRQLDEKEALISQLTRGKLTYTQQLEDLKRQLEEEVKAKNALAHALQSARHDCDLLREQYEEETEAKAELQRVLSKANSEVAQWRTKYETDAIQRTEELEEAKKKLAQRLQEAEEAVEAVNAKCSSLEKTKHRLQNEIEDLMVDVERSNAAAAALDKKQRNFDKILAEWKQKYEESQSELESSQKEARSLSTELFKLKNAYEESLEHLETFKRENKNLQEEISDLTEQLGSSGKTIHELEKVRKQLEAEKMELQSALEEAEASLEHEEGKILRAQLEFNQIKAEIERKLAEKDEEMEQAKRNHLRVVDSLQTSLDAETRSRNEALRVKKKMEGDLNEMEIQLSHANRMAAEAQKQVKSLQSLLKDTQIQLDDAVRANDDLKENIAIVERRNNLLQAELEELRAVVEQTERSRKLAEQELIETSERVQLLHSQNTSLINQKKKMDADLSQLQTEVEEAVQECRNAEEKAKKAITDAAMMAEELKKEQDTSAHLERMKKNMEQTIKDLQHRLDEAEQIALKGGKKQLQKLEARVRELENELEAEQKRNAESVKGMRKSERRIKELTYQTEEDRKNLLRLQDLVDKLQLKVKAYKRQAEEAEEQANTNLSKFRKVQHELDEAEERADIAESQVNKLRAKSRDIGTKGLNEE
T1 sequence (P08590 whole entry partner): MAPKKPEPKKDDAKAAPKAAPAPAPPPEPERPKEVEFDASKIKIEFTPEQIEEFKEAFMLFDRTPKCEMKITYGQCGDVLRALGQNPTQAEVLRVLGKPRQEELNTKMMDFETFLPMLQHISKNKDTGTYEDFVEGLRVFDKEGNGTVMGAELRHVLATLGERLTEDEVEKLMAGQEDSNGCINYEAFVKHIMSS
T1 sequence (P10916 whole entry partner): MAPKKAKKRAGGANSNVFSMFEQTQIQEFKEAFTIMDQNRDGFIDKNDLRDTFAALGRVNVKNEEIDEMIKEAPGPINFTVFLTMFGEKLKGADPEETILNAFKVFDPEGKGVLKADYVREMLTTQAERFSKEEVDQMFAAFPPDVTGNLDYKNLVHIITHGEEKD

For orientation: IC50 means the concentration at which inhibition is half-maximal. Lower therefore signals greater potency in that assay. Turning to `CCNC(=O)Cn1nc(-c2ccc(NC34CC(CO)(C3)C4)nc2)ccc1=O` [Compound I-58, N-ethyl-2-(3-(6-((3-(hydroxymethyl)bicyclo[1.1.1]pentan-1-yl)amino)pyridin-3-yl)-6-oxopyridazin-1(6H)-yl)acetamide], the half-maximal inhibitory concentration (IC50) in experiment [1] (Table 5A) was above 100 µM; in experiment [2] (Table 4A), 10 to 100 µM.

As to `COc1ccc(-c2ccc(=O)n(CC(=O)NCc3ccccc3Cl)n2)cc1C` [IIIa-23, N-(2-chlorobenzyl)-2-(3-(4-methoxy-3-methylphenyl)-6-oxopyridazin-1(6H)-yl)acetamide], the IC50 was above 100 µM in experiment [1] (Table 5C) and 10 to 100 µM in experiment [2] (Table 4C).

On to `COc1ccc(-c2ccc(=O)n(CC(=O)NCc3ccc(F)cc3)n2)c(F)c1` [IIIb-46, 2-(3-(2-fluoro-4-methoxyphenyl)-6-oxopyridazin-1(6H)-yl)-N-(4-fluorobenzyl)acetamide], for which the concentration for half-maximal inhibition (IC50) in experiment [1] (Table 5C) and in experiment [2] (Table 4C) was above 100 µM throughout.

In the case of `O=C(Cn1nc(-c2ccc(Cl)cc2)ccc1=O)Nc1ccccc1F` [IIIc-27, 2-(3-(4-chlorophenyl)-6-oxopyridazin-1(6H)-yl)-N-(2-fluorophenyl)acetamide], the IC50 was above 100 µM in experiment [1] (Table 5C) and 10 to 100 µM in experiment [2] (Table 4C).

Regarding `CC(C)(C)NC(=O)Cn1nc(-c2ccc(OC(F)F)cc2)ccc1=O` [II-16, N-(tert-butyl)-2-(3-(4-(difluoromethoxy)phenyl)-6-oxopyridazin-1(6H)-yl)acetamide], the half-inhibitory concentration (IC50) is above 100 µM in experiment [1] (Table 5B) and 10 to 100 µM in experiment [2] (Table 4B).

Take `Cc1ccc(-c2ccc(=O)n(CC(=O)NC3CCCCC3)n2)cc1` [IIIc-6, N-cyclohexyl-2-(6-oxo-3-(p-tolyl)pyridazin-1(6H)-yl)acetamide]: the values for the half-maximal inhibitory concentration (IC50) in experiment [1] (Table 5C) and in experiment [2] (Table 4C) were above 100 µM and 10 to 100 µM, respectively.

Consider `CCOc1ccc(-c2ccc(=O)n(CCNC(=O)CC3CCCC3)n2)cc1` [IIIb-43, 2-cyclopentyl-N-(2-(3-(4-ethoxyphenyl)-6-oxopyridazin-1(6H)-yl)ethyl)acetamide], for which the half-maximal inhibitory concentration (IC50) in experiment [1] (Table 5C) and in experiment [2] (Table 4C) was above 100 µM throughout.

For `COc1ccc(-c2ccc(=O)n(CC(=O)NCCC3=CCCCC3)n2)c(F)c1` [IIIb-7, N-(2-(cyclohex-1-en-1-yl)ethyl)-2-(3-(2-fluoro-4-methoxyphenyl)-6-oxopyridazin-1(6H)-yl)acetamide], the results for the IC50 in experiment [1] (Table 5C) and in experiment [2] (Table 4C) were above 100 µM and below 10 µM, respectively.

As for `O=C(Cn1nc(-c2ccccc2)ccc1=O)Nc1ccccc1Cl` [IIIc-56, N-(2-chlorophenyl)-2-(6-oxo-3-phenylpyridazin-1(6H)-yl)acetamide], the IC50 is above 100 µM in experiment [1] (Table 5C) and 10 to 100 µM in experiment [2] (Table 4C).

Take `COc1ccc(-c2ccc(=O)n(CC(=O)NCCc3ccccc3)n2)c(F)c1` [IIIb-9, 2-(3-(2-fluoro-4-methoxyphenyl)-6-oxopyridazin-1(6H)-yl)-N-phenethylacetamide]: the values for the IC50 in experiment [1] (Table 5C) and in experiment [2] (Table 4C) were above 100 µM and below 10 µM, respectively.

In the case of `COc1ccc(-c2ccc(=O)n(CC(=O)NCc3ccccc3Cl)n2)cc1OC` [IIIb-40, N-(2-chlorobenzyl)-2-(3-(3,4-dimethoxyphenyl)-6-oxopyridazin-1(6H)-yl)acetamide], the IC50 in experiment [1] (Table 5C) and in experiment [2] (Table 4C) was above 100 µM each time.

With `COc1ccc(CNC(=O)Cn2nc(-c3ccc(OC)cc3)ccc2=O)cc1` [IIIb-34, N-(4-methoxybenzyl)-2-(3-(4-methoxyphenyl)-6-oxopyridazin-1(6H)-yl)acetamide], the IC50 is above 100 µM in experiment [1] (Table 5C) and 10 to 100 µM in experiment [2] (Table 4C).

Turning to `CCNC(=O)Cn1nc(-c2ccc(C3CC3)nc2)ccc1=O` [Compound I-12, 2-(3-(6-cyclopropylpyridin-3-yl)-6-oxopyridazin-1(6H)-yl)-N-ethylacetamide], the half-inhibitory concentration (IC50) in experiment [1] (Table 5A) was above 100 µM; in experiment [2] (Table 4A) it was 10 to 100 µM.

As for `CCc1ccc(-c2ccc(=O)n(CC(=O)NCc3ccccc3Cl)n2)cc1` [IIIa-18, N-(2-chlorobenzyl)-2-(3-(4-ethylphenyl)-6-oxopyridazin-1(6H)-yl)acetamide], the values for the half-maximal inhibitory concentration (IC50) in experiment [1] (Table 5C) and in experiment [2] (Table 4C) were above 100 µM and below 10 µM, respectively.

Take `O=C(Cn1nc(-c2ccccc2)ccc1=O)Nc1ccc2c(c1)OCCO2` [IIIc-64, N-(2,3-dihydrobenzo[b][1,4]dioxin-6-yl)-2-(6-oxo-3-phenylpyridazin-1(6H)-yl)acetamide]: the IC50 in experiment [1] (Table 5C) and in experiment [2] (Table 4C) was above 100 µM each time.

With `CCNC(=O)Cn1nc(-c2ccc(OC(C)C)nc2)ccc1=O` [Compound I-27, N-ethyl-2-(3-(6-isopropoxypyridin-3-yl)-6-oxopyridazin-1(6H)-yl)acetamide], the IC50 in experiment [1] (Table 5A) and in experiment [2] (Table 4A) was above 100 µM in each case.

With `COc1ccc(-c2ccc(=O)n(CC(=O)NCc3ccccc3)n2)cc1` [IIIb-20, N-benzyl-2-(3-(4-methoxyphenyl)-6-oxopyridazin-1(6H)-yl)acetamide], the 50% inhibitory concentration (IC50) is above 100 µM in experiment [1] (Table 5C) and 10 to 100 µM in experiment [2] (Table 4C).

Regarding `COc1ccc(-c2ccc(=O)n(CC(=O)NCc3ccno3)n2)cc1` [IIIa-34, N-(isoxazol-5-ylmethyl)-2-(3-(4-methoxyphenyl)-6-oxopyridazin-1(6H)-yl)acetamide], the concentration for half-maximal inhibition (IC50) in experiment [1] (Table 5C) and in experiment [2] (Table 4C) was above 100 µM in each case.

Turning to `COc1ccc(-c2ccc(=O)n(CC(=O)NCC3CCCCC3)n2)cc1` [IIIa-4], the concentration for half-maximal inhibition (IC50) in experiment [1] (Table 5C) was above 100 µM; in experiment [2] (Table 4C), below 10 µM.

Consider `O=C(Cn1nc(-c2ccc(OCC(F)(F)F)cc2)ccc1=O)NCc1ccc(O)nc1` [II-20, N-((6-hydroxypyridin-3-yl)methyl)-2-(6-oxo-3-(4-(2,2,2-trifluoroethoxy)phenyl)pyridazin-1(6H)-yl)acetamide], for which the IC50 in experiment [1] (Table 5B) and in experiment [2] (Table 4B) was above 100 µM each time.

Consider `COc1ccc(-c2ccc(=O)n(CC(=O)NCc3ccccc3Cl)n2)c(F)c1` [IIIa-13, N-(2-chlorobenzyl)-2-(3-(2-fluoro-4-methoxyphenyl)-6-oxopyridazin-1(6H)-yl)acetamide], for which the 50% inhibitory concentration (IC50) is above 100 µM in experiment [1] (Table 5C) and below 10 µM in experiment [2] (Table 4C).

For the compound `CNC(=O)Cn1nc(-c2ccc(OC)cc2)ccc1=O` [IIIa-21, 2-(3-(4-methoxyphenyl)-6-oxopyridazin-1(6H)-yl)-N-methylacetamide], the half-inhibitory concentration (IC50) in experiment [1] (Table 5C) was above 100 µM; in experiment [2] (Table 4C), 10 to 100 µM.

`COc1ccc(-c2ccc(=O)n(CC(=O)NC[C@@H]3CC4C=CC3C4)n2)cc1` (stereo partly drawn) [IIIb-39, N-(((2R)-bicyclo[2.2.1]hept-5-en-2-yl)methyl)-2-(3-(4-methoxyphenyl)-6-oxopyridazin-1(6H)-yl)acetamide]: the IC50 in experiment [1] (Table 5C) and in experiment [2] (Table 4C) was above 100 µM each time.

In the case of `CN(Cc1ccccc1)C(=O)Cn1nc(-c2ccc(Cl)cc2)ccc1=O` [IIIc-32, N-benzyl-2-(3-(4-chlorophenyl)-6-oxopyridazin-1(6H)-yl)-N-methylacetamide], the half-maximal inhibitory concentration (IC50) is above 100 µM in experiment [1] (Table 5C) and 10 to 100 µM in experiment [2] (Table 4C).

With `O=C(Cn1nc(-c2ccc(NC34CC(C3)C4)nc2)ccc1=O)NC1CCC1` [Compound I-54, 2-(3-(6-(bicyclo[1.1.1]pentan-1-ylamino)pyridin-3-yl)-6-oxopyridazin-1(6H)-yl)-N-cyclobutylacetamide], the IC50 in experiment [1] (Table 5A) is above 100 µM; in experiment [2] (Table 4A), below 10 µM.

In the case of `COc1ccc(-c2ccc(=O)n(CC(=O)NCc3nccn3C)n2)cc1` [IIIa-33, 2-(3-(4-methoxyphenyl)-6-oxopyridazin-1(6H)-yl)-N-((1-methyl-1H-imidazol-2-yl)methyl) acetamide], the IC50 in experiment [1] (Table 5C) and in experiment [2] (Table 4C) was above 100 µM in each case.

With `COc1ccc(-c2ccc(=O)n(CC(=O)Nc3cccc(Cl)c3)n2)cc1` [IIIb-52, N-(3-chlorophenyl)-2-(3-(4-methoxyphenyl)-6-oxopyridazin-1(6H)-yl)acetamide], the 50% inhibitory concentration (IC50) in experiment [1] (Table 5C) and in experiment [2] (Table 4C) was above 100 µM in each case.

For `O=C(Cn1nc(-c2ccccc2)ccc1=O)Nc1ccccc1F` [IIIc-66, N-(2-fluorophenyl)-2-(6-oxo-3-phenylpyridazin-1(6H)-yl)acetamide], the concentration for half-maximal inhibition (IC50) in experiment [1] (Table 5C) and in experiment [2] (Table 4C) was above 100 µM throughout.

In the case of `CCNC(=O)Cn1nc(-c2ccc(OC3COC3)nc2)ccc1=O` [Compound I-25, N-ethyl-2-(3-(6-(oxetan-3-yloxy)pyridin-3-yl)-6-oxopyridazin-1(6H)-yl)acetamide], the concentration for half-maximal inhibition (IC50) in experiment [1] (Table 5A) and in experiment [2] (Table 4A) was above 100 µM each time.

In the case of `O=C(Cn1nc(-c2cnc(OCC(F)(F)F)nc2)ccc1=O)NC12CC(C1)C2` [Compound I-51, N-(bicyclo[1.1.1]pentan-1-yl)-2-(6-oxo-3-(2-(2,2,2-trifluoroethoxy)pyrimidin-5-yl)pyridazin-1(6H)-yl)acetamide], the values for the IC50 in experiment [1] (Table 5A) and in experiment [2] (Table 4A) were above 100 µM and below 10 µM, respectively.

On to `O=C(Cn1nc(-c2ccc(Cl)cc2)ccc1=O)Nc1ccccc1Cl` [IIIc-28, N-(2-chlorophenyl)-2-(3-(4-chlorophenyl)-6-oxopyridazin-1(6H)-yl)acetamide], for which the IC50 was 10 to 100 µM in experiment [1] (Table 5C) and below 10 µM in experiment [2] (Table 4C).

Take `COc1ccc(-c2ccc(=O)n(CC(=O)NC3CCCC3)n2)cc1` [IIIb-23, N-cyclopentyl-2-(3-(4-methoxyphenyl)-6-oxopyridazin-1(6H)-yl)acetamide]: the IC50 was above 100 µM in experiment [1] (Table 5C) and 10 to 100 µM in experiment [2] (Table 4C).

Turning to `CCNC(=O)Cn1nc(-c2ccc(OC(C)(F)F)cc2)ccc1=O` [II-1, 2-(3-(4-(1,1-difluoroethoxy)phenyl)-6-oxopyridazin-1(6H)-yl)-N-ethylacetamide], the IC50 in experiment [1] (Table 5B) is 10 to 100 µM; in experiment [2] (Table 4B), below 10 µM.

On to `CCNC(=O)Cn1nc(-c2cnc(Nc3ccc(F)cc3)nc2)ccc1=O` [Compound I-2, N-ethyl-2-(3-(2-((4-fluorophenyl)amino)pyrimidin-5-yl)-6-oxopyridazin-1(6H)-yl)acetamide], for which the half-maximal inhibitory concentration (IC50) is above 100 µM in experiment [1] (Table 5A) and below 10 µM in experiment [2] (Table 4A).

The values are drawn from patent US12415794B2 (Edgewise Therapeutics, Inc., priority 2018, dated 2025).
